Test results published in patent US20220177508A1, “C10-Cyclic Substituted 13-Membered Macrolides and Uses Thereof” (Zikani Therapeutics, Inc., priority 2018, published 2022).
Converted amounts (≈) assume the structure as drawn.

Key:
Format in all cases: cell-based
S. aureus MP-12 = test: Broth dilution MIC determination (CLSI), S. aureus MP-12; conditions: Staphylococcus aureus, MP12; strain MP-12, broth dilution
E. coli MP-4 = test: Broth dilution MIC determination (CLSI), E. coli MP-4; conditions: Escherichia coli, MP4; strain MP-4, broth dilution; read-out: MIC E. coli MP-4
K. pneumoniae MP-546 = test: Broth dilution MIC determination (CLSI), K. pneumoniae MP-546; conditions: Klebsiella pneumoniae, MP546; strain MP-546, broth dilution
P. aeruginosa MP-3 = test: Broth dilution MIC determination (CLSI), P. aeruginosa MP-3; conditions: Pseudomonas aeruginosa, MP3; strain MP-3, broth dilution
A. baumannii MP-15 = test: Broth dilution MIC determination (CLSI), A. baumannii MP-15; conditions: Acinetobacter baumannii, MP15; strain MP-15, broth dilution; read-out: MIC A. baumanii MP-15

| Compound | MIC (S. aureus MP-12) [µg/mL] | MIC (E. coli MP-4) [µg/mL] | MIC (K. pneumoniae MP-546) [µg/mL] | MIC (P. aeruginosa MP-3) [µg/mL] | MIC (A. baumannii MP-15) [µg/mL] |
| --- | --- | --- | --- | --- | --- |
| CO[C@]1(C)C[C@@H](C)CN(C)[C@H](C2CN(C3CCCCC3)C2)COC(=O)C(C)(C)C(=O)[C@H](C)[C@H]1O[C@@H]1O[C@H](C)C[C@H](N(C)C)[C@H]1O [Compound 73, (3R,6R,8R,9R,10R)-3-(1-cyclohexylazetidin-3-yl)-9-(((2S,3R,4S,6R)-4-(dimethylamino)-3-hydroxy-6-methyltetrahydro-2H-pyran-2-yl)oxy)-8-methoxy-4,6,8,10,12,12-hexamethyl-1-oxa-4-azacyclotridecane-11,13-dione] | 4 to 32 (≈ 6.27 to 50.2 µM) | 4 to 32 (≈ 6.27 to 50.2 µM) | < 4 | > 32 | 4 to 32 (≈ 6.27 to 50.2 µM) |
| CCN(CC)[C@H](C)C(=O)N1CC([C@H]2COC(=O)C(C)(C)C(=O)[C@H](C)[C@@H](O[C@@H]3O[C@H](C)C[C@H](N(C)C)[C@H]3O)[C@](C)(OC)C[C@@H](C)CN2C)C1 [Compound 74, (3S,6R,8R,9R,10R)-3-(1-(diethyl-D-alanyl)azetidin-3-yl)-9-(((2S,3R,4S,6R)-4-(dimethylamino)-3-hydroxy-6-methyltetrahydro-2H-pyran-2-yl)oxy)-8-methoxy-4,6,8,10,12,12-hexamethyl-1-oxa-4-azacyclotridecane-11,13-dione] | > 32 | < 4 | 4 to 32 (≈ 5.86 to 46.9 µM) | > 32 | > 32 |
| CCCN1C2CCC1CC([C@@H]1COC(=O)C(C)(C)C(=O)[C@H](C)[C@@H](O[C@@H]3O[C@H](C)C[C@H](N(C)C)[C@H]3O)[C@](C)(OC)C[C@@H](C)CN1C)C2 (stereo partly drawn) [Compound 79, (3R,6R,8R,9R,10R)-9-(((2S,3R,4S,6R)-4-(dimethylamino)-3-hydroxy-6-methyltetrahydro-2H-pyran-2-yl)oxy)-8-methoxy-4,6,8,10,12,12-hexamethyl-3-(8-propyl-8-azabicyclo[3.2.1]octan-3-yl)-1-oxa-4-azacyclotridecane-11,13-dione] | < 4 | < 4 | 4 to 32 (≈ 6.14 to 49.1 µM) | > 32 | > 32 |
| CO[C@]1(C)C[C@@H](C)CN(C)[C@@H](C2CN(CC(C)C)C2)COC(=O)C(C)(C)C(=O)[C@H](C)[C@H]1O[C@@H]1O[C@H](C)C[C@H](N(C)C)[C@H]1O [Compound 81, (3S,6R,8R,9R,10R)-9-(((2S,3R,4S,6R)-4-(dimethylamino)-3-hydroxy-6-methyltetrahydro-2H-pyran-2-yl)oxy)-3-(1-isobutylazetidin-3-yl)-8-methoxy-4,6,8,10,12,12-hexamethyl-1-oxa-4-azacyclotridecane-11,13-dione] | > 32 | < 4 | 4 to 32 (≈ 6.54 to 52.3 µM) | > 32 | > 32 |
| CO[C@]1(C)C[C@@H](C)CN(C)[C@H](C2CCN(C(=O)CN(C)C)CC2)COC(=O)C(C)(C)C(=O)[C@H](C)[C@H]1O[C@@H]1O[C@H](C)C[C@H](N(C)C)[C@H]1O [Compound 85, (3R,6R,8R,9R,10R)-9-(((2S,3R,4S,6R)-4-(dimethylamino)-3-hydroxy-6-methyltetrahydro-2H-pyran-2-yl)oxy)-3-(1-(dimethylglycyl)piperidin-4-yl)-8-methoxy-4,6,8,10,12,12-hexamethyl-1-oxa-4-azacyclotridecane-11,13-dione] | > 32 | < 4 | 4 to 32 (≈ 5.98 to 47.8 µM) | > 32 | > 32 |

More lines, now with the values ahead:

| MIC (S. aureus MP-12) [µg/mL] | MIC (E. coli MP-4) [µg/mL] | MIC (K. pneumoniae MP-546) [µg/mL] | MIC (P. aeruginosa MP-3) [µg/mL] | MIC (A. baumannii MP-15) [µg/mL] | Compound |
| --- | --- | --- | --- | --- | --- |
| 4 to 32 (≈ 5.98 to 47.8 µM) | < 4 | 4 to 32 (≈ 5.98 to 47.8 µM) | > 32 | > 32 | CCCN1C[C@H](C)C[C@@](C)(OC)[C@H](O[C@@H]2O[C@H](C)C[C@H](N(C)C)[C@H]2O)[C@@H](C)C(=O)C(C)(C)C(=O)OC[C@H]1C1CN(C(=O)CN(C)C)C1 [Compound 68, (3R,6R,8R,9R,10R)-9-(((2S,3R,4S,6R)-4-(dimethylamino)-3-hydroxy-6-methyltetrahydro-2H-pyran-2-yl)oxy)-3-(1-(dimethylglycyl)azetidin-3-yl)-8-methoxy-6,8,10,12,12-pentamethyl-4-propyl-1-oxa-4-azacyclotridecane-11,13-dione] |
| 4 to 32 (≈ 6.39 to 51.1 µM) | < 4 | 4 to 32 (≈ 6.39 to 51.1 µM) | > 32 | > 32 | CCN1C[C@H](C)C[C@@](C)(OC)[C@H](O[C@@H]2O[C@H](C)C[C@H](N(C)C)[C@H]2O)[C@@H](C)C(=O)C(C)(C)C(=O)OC[C@H]1C1CN(CC(C)C)C1 [Compound 70, (3R,6R,8R,9R,10R)-9-(((2S,3R,4S,6R)-4-(dimethylamino)-3-hydroxy-6-methyltetrahydro-2H-pyran-2-yl)oxy)-4-ethyl-3-(1-isobutylazetidin-3-yl)-8-methoxy-6,8,10,12,12-pentamethyl-1-oxa-4-azacyclotridecane-11,13-dione] |
| 4 to 32 (≈ 6.69 to 53.5 µM) | < 4 | < 4 | > 32 | > 32 | CCCN1CC([C@@H]2COC(=O)C(C)(C)C(=O)[C@H](C)[C@@H](O[C@@H]3O[C@H](C)C[C@H](N(C)C)[C@H]3O)[C@](C)(OC)C[C@@H](C)CN2C)C1 [Compound 76, (3R,6R,8R,9R,10R)-9-(((2S,3R,4S,6R)-4-(dimethylamino)-3-hydroxy-6-methyltetrahydro-2H-pyran-2-yl)oxy)-8-methoxy-4,6,8,10,12,12-hexamethyl-3-(1-propylazetidin-3-yl)-1-oxa-4-azacyclotridecane-11,13-dione] |
| > 32 | 4 to 32 (≈ 6.85 to 54.8 µM) | 4 to 32 (≈ 6.85 to 54.8 µM) | > 32 | > 32 | CO[C@]1(C)C[C@@H](C)CN(C)[C@H]([C@@H]2CCCNC2)COC(=O)C(C)(C)C(=O)[C@H](C)[C@H]1O[C@@H]1O[C@H](C)C[C@H](N(C)C)[C@H]1O [Compound 77] |
| 4 to 32 (≈ 6.85 to 54.8 µM) | < 4 | 4 to 32 (≈ 6.85 to 54.8 µM) | > 32 | > 32 | CO[C@]1(C)C[C@@H](C)CN(C)[C@H](C2CCNCC2)COC(=O)C(C)(C)C(=O)[C@H](C)[C@H]1O[C@@H]1O[C@H](C)C[C@H](N(C)C)[C@H]1O [Compound 80, (3R,6R,8R,9R,10R)-9-(((2S,3R,4S,6R)-4-(dimethylamino)-3-hydroxy-6-methyltetrahydro-2H-pyran-2-yl)oxy)-8-methoxy-4,6,8,10,12,12-hexamethyl-3-(piperidin-4-yl)-1-oxa-4-azacyclotridecane-11,13-dione] |
| > 32 | > 32 | > 32 | > 32 | > 32 | CO[C@]1(C)C[C@@H](C)CN(C)[C@@H]([C@H]2CC[C@H](N(C)C(=O)CN(C)C)CC2)COC(=O)C(C)(C)C(=O)[C@H](C)[C@H]1O[C@@H]1O[C@H](C)C[C@H](N(C)C)[C@H]1O [Compound 82, 2-(dimethylamino)-N-((1S,4r)-4-((3S,6R,8R,9R,10R)-9-(((2S,3R,4S,6R)-4-(dimethylamino)-3-hydroxy-6-methyltetrahydro-2H-pyran-2-yl)oxy)-8-methoxy-4,6,8,10,12,12-hexamethyl-11,13-dioxo-1-oxa-4-azacyclotridecan-3-yl)cyclohexyl)-N-methylacetamide] |
